Measurements: ChEMBL document CHEMBL4007427, “Inhibition of the Aldehyde Dehydrogenase 1/2 Family by Psoralen and Coumarin Derivatives” (J Med Chem, 2017)

Experiments:
[1] = target: T1, Aldehyde dehydrogenase, dimeric NADP-preferring (Homo sapiens) (UniProt P30838); assay: Inhibition of full length recombinant human ALDH3A1 expressed in Escherichia coli BL21(DE3) assessed as remaining dehydrogenase activity by measuring NAD(P)H level at 10 uM preincubated for 2 mins followed by addition of propionaldehyde as substrate in presence of NAD+ by spectrophotometric method
T1 sequence (whole entry): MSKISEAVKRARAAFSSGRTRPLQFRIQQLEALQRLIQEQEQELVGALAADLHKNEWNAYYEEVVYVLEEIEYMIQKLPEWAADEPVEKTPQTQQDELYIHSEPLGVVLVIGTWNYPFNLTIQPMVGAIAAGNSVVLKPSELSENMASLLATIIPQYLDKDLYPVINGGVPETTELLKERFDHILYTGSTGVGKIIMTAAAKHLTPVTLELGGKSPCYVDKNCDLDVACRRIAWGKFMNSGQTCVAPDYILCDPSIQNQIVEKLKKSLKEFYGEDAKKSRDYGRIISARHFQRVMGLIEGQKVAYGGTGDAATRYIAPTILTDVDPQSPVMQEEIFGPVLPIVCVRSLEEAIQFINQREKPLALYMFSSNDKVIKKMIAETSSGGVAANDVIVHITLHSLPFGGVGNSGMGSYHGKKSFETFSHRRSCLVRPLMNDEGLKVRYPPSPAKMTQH

[2] = target: T2, Aldehyde dehydrogenase 1A1 (Homo sapiens) (UniProt P00352); assay: (§1) Inhibition of full length recombinant human ALDH1A1 expressed in Escherichia coli BL21(DE3) assessed as remaining dehydrogenase activity by measuring NAD(P)H level at 10 uM preincubated for 2 mins followed by addition of propionaldehyde as substrate in presence of NAD+ by spectrophotometric method
T2 sequence (whole entry): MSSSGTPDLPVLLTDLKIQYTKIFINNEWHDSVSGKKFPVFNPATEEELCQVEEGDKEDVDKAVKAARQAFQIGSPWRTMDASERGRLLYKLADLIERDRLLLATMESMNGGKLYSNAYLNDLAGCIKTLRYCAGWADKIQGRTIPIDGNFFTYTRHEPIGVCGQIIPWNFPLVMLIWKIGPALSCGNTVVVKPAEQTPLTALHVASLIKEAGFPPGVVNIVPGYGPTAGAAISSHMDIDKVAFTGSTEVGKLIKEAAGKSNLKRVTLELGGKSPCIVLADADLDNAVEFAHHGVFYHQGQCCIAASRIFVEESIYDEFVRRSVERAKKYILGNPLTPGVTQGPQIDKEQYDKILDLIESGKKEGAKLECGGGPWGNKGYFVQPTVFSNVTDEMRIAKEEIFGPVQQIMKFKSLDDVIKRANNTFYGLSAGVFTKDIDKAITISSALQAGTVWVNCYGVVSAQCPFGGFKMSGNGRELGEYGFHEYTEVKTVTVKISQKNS

[3] = target: T3, Aldehyde dehydrogenase, mitochondrial (Homo sapiens) (UniProt P05091); assay: Inhibition of full length recombinant human ALDH2 expressed in Escherichia coli assessed as remaining dehydrogenase activity by measuring NAD(P)H level at 10 uM preincubated for 2 mins followed by addition of propionaldehyde as substrate in presence of NAD+ by spectrophotometric method
T3 sequence (whole entry): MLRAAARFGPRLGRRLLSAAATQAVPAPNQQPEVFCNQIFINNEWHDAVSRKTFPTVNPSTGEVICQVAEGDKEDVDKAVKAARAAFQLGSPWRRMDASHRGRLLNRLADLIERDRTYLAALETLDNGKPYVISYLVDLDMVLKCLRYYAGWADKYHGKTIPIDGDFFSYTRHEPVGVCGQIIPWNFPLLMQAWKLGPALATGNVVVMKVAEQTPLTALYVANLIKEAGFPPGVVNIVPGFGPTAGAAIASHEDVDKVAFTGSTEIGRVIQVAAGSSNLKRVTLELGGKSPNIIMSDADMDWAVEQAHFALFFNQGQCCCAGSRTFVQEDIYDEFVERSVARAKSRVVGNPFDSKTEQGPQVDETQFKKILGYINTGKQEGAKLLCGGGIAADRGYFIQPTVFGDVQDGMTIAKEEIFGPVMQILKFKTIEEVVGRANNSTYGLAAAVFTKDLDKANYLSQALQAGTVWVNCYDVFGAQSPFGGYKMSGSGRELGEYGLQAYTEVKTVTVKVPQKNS

[4] = Lipophilicity, log P of the compound; type: physicochemical; settings: octanol/water
[5] = target: T4, Aldehyde dehydrogenase, mitochondrial (Homo sapiens, UniProt P05091)
T4 sequence (P05091 whole entry): T3 sequence (whole entry)
Description: (§3) Inhibition of full length recombinant human ALDH2 expressed in Escherichia coli assessed as reduction in dehydrogenase activity by measuring NAD(P)H level preincubated for 2 mins followed by addition of propionaldehyde as substrate in presence of NAD+ by spectrophotometric method

Retinal dehydrogenase 2 = target: T5, Retinal dehydrogenase 2 (Homo sapiens, UniProt O94788)
T5 sequence (O94788 whole entry): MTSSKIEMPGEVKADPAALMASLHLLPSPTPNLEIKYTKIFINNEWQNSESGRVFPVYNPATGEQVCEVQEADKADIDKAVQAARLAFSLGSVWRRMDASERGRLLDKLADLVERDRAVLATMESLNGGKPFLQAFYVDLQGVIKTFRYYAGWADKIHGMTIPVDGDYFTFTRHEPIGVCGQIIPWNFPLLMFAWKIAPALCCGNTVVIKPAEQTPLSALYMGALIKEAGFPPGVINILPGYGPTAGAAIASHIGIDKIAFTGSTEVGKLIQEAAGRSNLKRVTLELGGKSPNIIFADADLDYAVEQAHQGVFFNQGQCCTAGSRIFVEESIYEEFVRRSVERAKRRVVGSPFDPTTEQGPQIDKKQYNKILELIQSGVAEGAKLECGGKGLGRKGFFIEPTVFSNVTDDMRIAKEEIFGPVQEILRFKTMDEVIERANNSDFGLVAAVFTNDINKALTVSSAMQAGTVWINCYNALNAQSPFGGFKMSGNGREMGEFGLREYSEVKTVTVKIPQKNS
Description: Inhibition of full length recombinant human ALDH1A2 expressed in Escherichia coli BL21(DE3) assessed as reduction in dehydrogenase activity by measuring NAD(P)H level preincubated for 2 mins followed by addition of propionaldehyde as substrate in presence of NAD+ by spectrophotometric method

[6] = target: T6, Aldehyde dehydrogenase 1A1 (Homo sapiens, UniProt P00352)
T6 sequence (P00352 whole entry): T2 sequence (whole entry)
Description: (§4) Inhibition of full length recombinant human ALDH1A1 expressed in Escherichia coli BL21(DE3) assessed as reduction in dehydrogenase activity by measuring NAD(P)H level preincubated for 2 mins followed by addition of propionaldehyde as substrate in presence of NAD+ by spectrophotometric method

[7] = target: T6, Aldehyde dehydrogenase 1A1; remark: listed apart in the source
Description: Non-competitive inhibition of full length recombinant human ALDH1A1 expressed in Escherichia coli BL21(DE3) assessed as reduction in dehydrogenase activity by measuring NAD(P)H level using varying levels propionaldehyde in presence of NAD+ by Lineweaver-Burk plot analysis

[8] = target: T7, Retinaldehyde dehydrogenase 3 (Homo sapiens, UniProt P47895)
T7 sequence (P47895 whole entry): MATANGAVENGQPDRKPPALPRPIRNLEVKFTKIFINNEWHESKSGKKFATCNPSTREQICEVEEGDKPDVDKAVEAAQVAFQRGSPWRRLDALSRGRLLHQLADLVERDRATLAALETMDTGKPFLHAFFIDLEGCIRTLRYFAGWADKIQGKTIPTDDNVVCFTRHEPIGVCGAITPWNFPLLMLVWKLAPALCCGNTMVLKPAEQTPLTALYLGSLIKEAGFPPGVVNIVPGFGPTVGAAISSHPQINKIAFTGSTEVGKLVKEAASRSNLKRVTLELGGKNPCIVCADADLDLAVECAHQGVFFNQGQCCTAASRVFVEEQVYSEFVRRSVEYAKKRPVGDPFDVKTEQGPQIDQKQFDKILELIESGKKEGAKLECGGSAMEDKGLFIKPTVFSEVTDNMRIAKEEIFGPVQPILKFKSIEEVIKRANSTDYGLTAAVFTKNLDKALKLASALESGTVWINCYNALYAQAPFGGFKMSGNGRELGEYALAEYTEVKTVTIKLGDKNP
Description: (§5) Inhibition of full length recombinant human ALDH1A3 expressed in Escherichia coli BL21(DE3) assessed as reduction in dehydrogenase activity by measuring NAD(P)H level preincubated for 2 mins followed by addition of propionaldehyde as substrate in presence of NAD+ by spectrophotometric method

[9] = target: T8, Aldehyde dehydrogenase X, mitochondrial (Homo sapiens, UniProt P30837)
T8 sequence (P30837 whole entry): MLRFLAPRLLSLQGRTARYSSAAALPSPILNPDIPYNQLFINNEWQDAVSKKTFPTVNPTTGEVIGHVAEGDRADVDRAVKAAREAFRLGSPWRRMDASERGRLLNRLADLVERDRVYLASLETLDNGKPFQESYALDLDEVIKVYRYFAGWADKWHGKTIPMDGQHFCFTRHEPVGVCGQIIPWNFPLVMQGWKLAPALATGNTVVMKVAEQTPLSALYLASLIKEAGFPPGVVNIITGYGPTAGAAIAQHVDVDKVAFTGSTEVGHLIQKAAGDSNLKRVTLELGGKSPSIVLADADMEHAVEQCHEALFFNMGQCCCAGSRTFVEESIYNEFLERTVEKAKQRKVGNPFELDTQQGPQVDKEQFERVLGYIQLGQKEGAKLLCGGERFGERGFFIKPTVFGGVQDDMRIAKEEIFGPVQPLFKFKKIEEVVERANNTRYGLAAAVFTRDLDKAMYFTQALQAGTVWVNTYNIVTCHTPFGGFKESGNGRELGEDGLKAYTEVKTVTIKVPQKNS
Description: (§6) Inhibition of full length recombinant human ALDH1B1 expressed in Escherichia coli TunerDE3 assessed as reduction in dehydrogenase activity by measuring NAD(P)H level preincubated for 2 mins followed by addition of propionaldehyde as substrate in presence of NAD+ by spectrophotometric method

[10] = target: T6, Aldehyde dehydrogenase 1A1; remark: listed apart in the source
[11] = target: T9, Aldehyde dehydrogenase, dimeric NADP-preferring (Homo sapiens, UniProt P30838); assay: (§2) Inhibition of full length recombinant human ALDH3A1 expressed in Escherichia coli BL21(DE3) assessed as reduction in dehydrogenase activity by measuring NAD(P)H level preincubated for 2 mins followed by addition of benzaldehyde as substrate in presence of NADP+ by spectrophotometric method
T9 sequence (P30838 whole entry): T1 sequence (whole entry)

[12] = target: T7, Retinaldehyde dehydrogenase 3; remark: listed apart in the source
Description: as §5

[13] = target: T8, Aldehyde dehydrogenase X, mitochondrial; remark: listed apart in the source
Description: as §6

[14] = target: T10, Cytosolic 10-formyltetrahydrofolate dehydrogenase (Rattus norvegicus, UniProt P28037); assay: Inhibition of rat ALDH1L1 assessed as reduction in dehydrogenase activity by measuring NAD(P)H level preincubated for 2 mins followed by addition of propionaldehyde as substrate in presence of NAD+ by spectrophotometric method
T10 sequence (P28037 whole entry): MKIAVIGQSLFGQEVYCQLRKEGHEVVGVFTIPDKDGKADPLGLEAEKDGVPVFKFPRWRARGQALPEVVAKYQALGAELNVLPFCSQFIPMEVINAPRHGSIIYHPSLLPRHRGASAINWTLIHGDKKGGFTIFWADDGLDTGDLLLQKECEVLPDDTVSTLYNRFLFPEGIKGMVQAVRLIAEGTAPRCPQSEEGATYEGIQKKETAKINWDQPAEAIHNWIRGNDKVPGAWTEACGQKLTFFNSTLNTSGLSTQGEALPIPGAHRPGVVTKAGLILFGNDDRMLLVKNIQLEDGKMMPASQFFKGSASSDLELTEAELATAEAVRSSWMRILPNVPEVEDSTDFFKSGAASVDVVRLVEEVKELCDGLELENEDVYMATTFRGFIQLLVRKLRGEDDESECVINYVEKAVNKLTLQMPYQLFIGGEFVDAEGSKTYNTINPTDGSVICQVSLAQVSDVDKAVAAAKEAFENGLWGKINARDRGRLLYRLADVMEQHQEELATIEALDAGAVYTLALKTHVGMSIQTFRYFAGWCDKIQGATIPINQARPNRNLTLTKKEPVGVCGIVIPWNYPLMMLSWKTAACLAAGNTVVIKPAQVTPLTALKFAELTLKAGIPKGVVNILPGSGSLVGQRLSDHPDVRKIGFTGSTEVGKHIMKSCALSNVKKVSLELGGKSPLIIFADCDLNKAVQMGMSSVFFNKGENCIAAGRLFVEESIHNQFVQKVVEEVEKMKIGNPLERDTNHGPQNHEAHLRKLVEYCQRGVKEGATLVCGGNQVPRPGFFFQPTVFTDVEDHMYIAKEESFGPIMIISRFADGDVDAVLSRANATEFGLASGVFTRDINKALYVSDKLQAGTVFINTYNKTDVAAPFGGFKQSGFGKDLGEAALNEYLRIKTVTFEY

[15] = target: T1, Aldehyde dehydrogenase, dimeric NADP-preferring (Homo sapiens); assay: as §2, with “method relative to control” for “method”
[16] = target: T4, Aldehyde dehydrogenase, mitochondrial; remark: listed apart in the source
Description: as §3

[17] = target: T6, Aldehyde dehydrogenase 1A1; remark: listed apart in the source
Description: as §4

[18] = target: T2, Aldehyde dehydrogenase 1A1 (Homo sapiens); assay: as §1, with “reduction in” for “remaining”, “level” for “level at 10 uM”, “method relative to control” for “method”
[19] = target: T4, Aldehyde dehydrogenase, mitochondrial; assay: Mixed-type non-competitive inhibition of full length recombinant human ALDH2 expressed in Escherichia coli assessed as reduction in dehydrogenase activity using propionaldehyde as substrate in presence of varying levels NAD+ by Lineweaver-Burk plot analysis

CCN(CC)c1ccc2c(C)cc(=O)oc2c1
Activity [1]: 109%
Activity [2]: 14.3%
Activity [3]: 71.7%
logP [4]: 3.63
IC50 [5]: Not Active
IC50 (Retinal dehydrogenase 2): > 10 µM
IC50 [6]: 0.76 µM
Ki [7]: 1.2 µM
IC50 [8]: Not Active
IC50 [9]: Not Active
Ki [10]: 0.87 µM
IC50 [11]: Not Active

O=c1c(-c2ccc(O)cc2)coc2cc(O[C@@H]3O[C@H](CO)[C@@H](O)[C@H](O)[C@H]3O)ccc12 [DAIDZIN]
IC50 [12]: > 200 µM
IC50 [13]: 5.1 µM
IC50 (Retinal dehydrogenase 2): 4.5 µM
IC50 [6]: > 200 µM
IC50 [14]: Not Active
IC50 [11]: Not Active

Cc1cc(=O)oc2cc3c(cc12)CCC(=O)O3
Activity [1]: 53.6%
Activity [2]: 65.2%
Activity [3]: 25.5%
logP [4]: 2.11
Imax [15]: 50 to 60%
IC50 [16]: 0.47 µM
IC50 [17]: Not Active
IC50 ([11]; read-out: IC50): 5.4 µM

Cc1oc2cc3oc(=O)c4c(c3cc2c1C)CCCC4
Activity [1]: 94.1%
Activity [2]: 56.3%
Imax [18]: 50 to 60%
Activity [3]: 16.3%
IC50 [13]: 0.095 µM
logP [4]: 4.27
IC50 (Retinal dehydrogenase 2): 0.065 µM
IC50 [16]: 0.067 µM
IC50 [6]: 0.13 µM
IC50 [8]: Not Active
IC50 [11]: Not Active

Cc1cc(=O)oc2cc(OCC#N)ccc12
Activity [1]: 20.4%
Activity [2]: 35.7%
Activity [3]: 41.3%
Ki [19]: 5.6 µM
logP [4]: 1.22
Ki [7]: 6.9 µM

Cc1c(Cc2ccccc2)c(=O)oc2cc(OS(C)(=O)=O)ccc12
IC50 [12]: 10 µM
Activity [1]: 86.9%
Activity [2]: 24.6%
Activity [3]: 99.7%
IC50 [13]: 13 µM
logP [4]: 3.44
IC50 [5]: Not Active
IC50 (Retinal dehydrogenase 2): 11 µM
IC50 [6]: 2.8 µM
IC50 [11]: Not Active
